Nine compounds from ChEMBL document CHEMBL1201862, “PubChem BioAssay data set” (2004) can be followed below.

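Compound exposure: 48 hours, 5 concentrations, 96-well plates. Abbreviation: GI50, concentration required for 50% inhibition of growth.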 Active and inactive are the calls of the source. No stated cut-off is given here; in the data, active = GI50 up to about 1.1 µM and inactive = higher.

Test systems include CCRF-CEM; IGROV-1; OVCAR-4; K562; OVCAR-5; NCI-H522; HT-29; SNB-75; SF-295; NCI-H460; CAKI-1; HOP-62; HCT-116; EKVX; 786-0; U-251; HCT-15.
Common to all, as to experiment: DTP human tumour cell line panel, 48 h

By GI50 is commonly meant the concentration at which growth is held to half of that of the control.

Turning to `O=C1C[C@@H]2[C@@H](CCC23CC3)N1`, the GI50 in the assay on CCRF-CEM, with IGROV-1, in the assay with OVCAR-4, in the assay with K562, in the assay with OVCAR-5 and in the assay on NCI-H522 was > 100 µM (inactive) each time. Further, the GI50 in the assay on HT-29, with SNB-75, with SF-295, with NCI-H460, with CAKI-1 and with HOP-62 was > 100 µM (inactive) in each case. Moreover, the GI50 in the assay with HCT-116, in the assay with EKVX, in the assay with 786-0 and in the assay on U-251 was > 100 µM (inactive) throughout.
On to `CC(=O)OCC1(C)C(OC(C)=O)CCC2(C)C(CC(OC(C)=O)C3=CCOC3=O)C(O)(CO)CCC12` (centres undefined), for which the GI50 in the assay on CCRF-CEM is 53.1 µM (inactive); in the assay with IGROV-1 it was > 100 µM (inactive); with OVCAR-4 it was > 100 µM (inactive); in the assay on K562, > 100 µM (inactive); in the assay on OVCAR-5, > 100 µM (inactive); in the assay on NCI-H522, > 100 µM (inactive). Besides, the GI50 in the assay on HT-29, in the assay on SNB-75, in the assay with SF-295, in the assay with NCI-H460, in the assay on CAKI-1 and in the assay on HOP-62 was > 100 µM (inactive) throughout. The GI50 with HCT-116, with EKVX, in the assay on 786-0 and in the assay with U-251 was > 100 µM (inactive) throughout.
Take `Cc1nc2ccc(N)cc2nc1O`: the GI50 in the assay with CCRF-CEM was > 100 µM (inactive); in the assay with IGROV-1, > 100 µM (inactive); with OVCAR-4 it was > 100 µM (inactive); with HCT-15, over 100 µM; in the assay with K562, > 100 µM (inactive); in the assay with OVCAR-5 it was > 100 µM (inactive). Besides, the GI50 in the assay with SF-295, in the assay with NCI-H460, in the assay on CAKI-1, in the assay on HOP-62, in the assay with HCT-116 and with EKVX was > 100 µM (inactive) each time. For the same compound, the GI50 in the assay with 786-0 and with U-251 was > 100 µM (inactive) in each case.
Turning to `Cc1ccc(-c2cc(=O)c3cc(C)c(C)c(C(=O)O)c3o2)cc1[N+](=O)[O-]`, the GI50 with CCRF-CEM is > 100 µM (inactive); in the assay with IGROV-1 it was > 100 µM (inactive); with OVCAR-4, > 100 µM (inactive); with HCT-15, over 100 µM; with K562 it was > 100 µM (inactive); with OVCAR-5, > 100 µM (inactive). In addition, the GI50 with NCI-H522, with HT-29, with SNB-75, in the assay with SF-295, in the assay with NCI-H460 and with CAKI-1 was > 100 µM (inactive) in each case. For the same compound, the GI50 in the assay on HCT-116, in the assay on EKVX, with 786-0 and in the assay on U-251 was > 100 µM (inactive) in each case.
`[O-][S+]1c2ccccc2N=C(c2cccs2)CC1c1ccccc1O` (centres undefined): the GI50 in the assay on CCRF-CEM is > 100 µM (inactive); in the assay with IGROV-1 it was 16.5 µM (inactive); in the assay on OVCAR-4 it was > 100 µM (inactive); with HCT-15 it was over 100 µM; in the assay on K562, > 100 µM (inactive); in the assay on OVCAR-5 it was > 100 µM (inactive). The GI50 with NCI-H522 was 65.2 µM (inactive); in the assay with HT-29 it was > 100 µM (inactive); in the assay on SNB-75 it was 32.4 µM (inactive); with SF-295, 70.3 µM (inactive); in the assay with NCI-H460, > 100 µM (inactive); in the assay with CAKI-1, > 100 µM (inactive). Besides, the GI50 was 97.5 µM (inactive) in the assay on HOP-62, > 100 µM (inactive) in the assay on EKVX and > 100 µM (inactive) in the assay with 786-0.
As to `NC(=O)NC12CC3CC(CC(F)(C3)C1)C2`, the GI50 with CCRF-CEM, in the assay on IGROV-1, in the assay with K562, with OVCAR-5, in the assay on NCI-H522 and in the assay with HT-29 was > 100 µM (inactive) throughout. In addition, the GI50 with SNB-75 is 87.9 µM (inactive); with NCI-H460, > 100 µM (inactive); with HOP-62, > 100 µM (inactive); in the assay on HCT-116, > 100 µM (inactive); in the assay with EKVX, > 100 µM (inactive); with 786-0, > 100 µM (inactive). Also, the GI50 in the assay with U-251 is > 100 µM (inactive).
In the case of `COc1ccc(Cc2c(=O)[nH]nc3ccccc23)cc1`, the GI50 with CCRF-CEM was > 100 µM (inactive); with IGROV-1, > 100 µM (inactive); with OVCAR-4, > 100 µM (inactive); with HCT-15 it was over 100 µM; in the assay with K562 it was > 100 µM (inactive); in the assay on OVCAR-5, > 100 µM (inactive). Moreover, the GI50 in the assay on HT-29 was > 100 µM (inactive); in the assay on SNB-75 it was 29 µM (inactive); in the assay with SF-295 it was > 100 µM (inactive); in the assay with NCI-H460, > 100 µM (inactive); in the assay with CAKI-1, > 100 µM (inactive); in the assay on HOP-62, > 100 µM (inactive). In addition, the GI50 in the assay with HCT-116, with EKVX and in the assay on 786-0 was > 100 µM (inactive) throughout.
Regarding `CCCOC(=O)C1CCC(=O)N1C(=O)C(Cl)Cl` (centres undefined), the GI50 is > 100 µM (inactive) with CCRF-CEM; > 100 µM (inactive) with IGROV-1; > 100 µM (inactive) in the assay with OVCAR-4; over 100 µM in the assay with HCT-15; > 100 µM (inactive) in the assay on K562; > 100 µM (inactive) with OVCAR-5. Further, the GI50 in the assay with NCI-H522 was > 100 µM (inactive); in the assay with HT-29 it was > 100 µM (inactive); with SNB-75, 59 µM (inactive); with SF-295 it was > 100 µM (inactive); in the assay with NCI-H460, > 100 µM (inactive); in the assay on CAKI-1, > 100 µM (inactive). Besides, the GI50 with HOP-62, in the assay on HCT-116, in the assay on EKVX, in the assay with 786-0 and in the assay with U-251 was > 100 µM (inactive) each time.
Take `Cc1ccccc1/C=N/C12CC3CC(CC(C3)C1)C2`: the GI50 was > 100 µM (inactive) with CCRF-CEM; > 100 µM (inactive) with IGROV-1; > 100 µM (inactive) with OVCAR-4; over 100 µM in the assay on HCT-15; > 100 µM (inactive) in the assay with K562; > 100 µM (inactive) with OVCAR-5. Besides, the GI50 in the assay with NCI-H522 was > 100 µM (inactive); with HT-29, > 100 µM (inactive); in the assay on SNB-75, > 100 µM (inactive); with SF-295, 49.3 µM (inactive); with NCI-H460, > 100 µM (inactive); with CAKI-1 it was > 100 µM (inactive). Besides, the GI50 in the assay with HOP-62, in the assay with HCT-116, in the assay on EKVX, with 786-0 and in the assay with U-251 was > 100 µM (inactive) each time.
